Data set [1] concerns human neuroblastoma cell lines SH-SY5Y. The data set is described as follows: Improvement of mitochondrial dysfunction in MPP+-treated SH-SY5Y cells (Alamar Blue mitochondrial oxidation reduction activity). In kind it is cell-based. The following applies: SH-SY5Y cells in 1.5 mM MPP+ medium, relative to cells in DMSO alone = 100%, read-out: Fluorescence Intensity (%); for activity at 0.01 µg/mL: test compound 0.01 μg/ml; for activity at 0.03 µg/mL: test compound 0.03 μg/ml; for activity at 0.1 µg/mL: test compound 0.1 μg/ml; for activity at 0.3 µg/mL: test compound 0.3 μg/ml; for activity at 1 µg/mL: test compound 1 μg/ml. As for the experimental part:
Evaluation of Improvement of Mitochondrial Dysfunction using Human Neuroblastoma Cell Lines SH-SY5Y Treated with 1-methyl-4-phenylpyridinium (MPP^+)
In human neuroblastoma cell lines SH-SY5Y in which mitochondrial activity was injured by MPP^+ treatment (Bollimuntha S. et al., J Biol Chem, 280, 2132-2140 (2005) and Shang T. et al., J Biol Chem, 280, 34644-34653 (2005)), improvement of the mitochondrial dysfunction was evaluated on the basis of the measurement value of the mitochondrial oxidation reduction activity using Alamar Blue fluorescent dye after the compound addition (Nakai M. et. al, Exp Neurol, 179, 103-110 (2003)).
The human neuroblastoma cell lines SH-SY5Y were cultured in Dulbecco's Modified Eagle's Medium containing 10% fetal bovine serum (DMEM containing 50 units/ml penicillin and 50 μg/ml streptomycin as antibiotics) at 37° C. in the presence of 5% carbon dioxide. Cells were scattered on a poly-D-lysine-coated 96-well black plate at a concentration of 3-6×10^4 cells/cm^2 (medium amount: 100 μl/well), and cultured in the above medium for two days. Further, the medium was changed to a DMEM containing a 1% N2 supplement (N2-DMEM) or to a medium (100 μl/well) in which 1.5 mM MPP^+ was dissolved. The cells were cultured therein for 39 to 48 hours, and then subjected to a mitochondrial oxidation reduction activity measurement system. A sample compound that had been previously dissolved in dimethyl sulfoxide (DMSO) was diluted with N2-DMEM, and added in a volume of 10 μl/well 24 hours before the activity measurement (final compound concentration: 0.01 to 1 μg/ml).
After removal of the medium by suction, a balanced salt solution containing 10% Alamar Blue (154 mM sodium chloride, 5.6 mM potassium chloride, 2.3 mM calcium chloride, 1.0 mM magnesium chloride, 3.6 mM sodium bicarbonate, 5 mM glucose, 5 mM HEPES, pH 7.2) was added in a volume of 100 μl/well, and reacted in an incubator at 37° C. for 1 hour. The fluorescent intensity was detected using a fluorescence detector (a product of Hamamatsu Photonics K.K., excitation wavelength 530 nm, measurement wavelength 580 nm) to thereby measure the mitochondrial oxidation reduction activity.
The fluorescent intensity of the well of the cells cultured in a medium containing MPP^+ and in each of the sample compounds was relatively evaluated based on a 100% fluorescent intensity of the well of the cells cultured in a medium containing DMSO alone (final concentration: 0.1%).

Structures are written as SMILES.

In the case of `COc1ccc(-c2c[nH]c3c(OCCCC(F)(F)F)ccc(F)c3c2=O)cc1` [Example 31, 5-Fluoro-3-(4-methoxyphenyl)-8-(4,4,4-trifluorobutoxy)-1H-quinolin-4-one], the melting point (commonly the temperature, or range, at which the solid turns liquid) fell in the range of 171 to 172 °C. Moreover, in data set [1], the activity at 0.01 µg/mL is 45%, the activity at 0.03 µg/mL stood at 45%, the activity at 0.1 µg/mL came out at 57% and the activity at 0.3 µg/mL turned out to be 59%. Also, the activity at 1 µg/mL in data set [1] was determined as 48%.

`CCCOc1ccc(F)c2c(=O)c(-c3ccc(SC)cc3)c[nH]c12` [Example 38, 5-Fluoro-3-(4-methylsulfanylphenyl)-8-propoxy-1H-quinolin-4-one] registered a melting point of 198 to 199 °C. For the same molecule, in data set [1], the activity at 0.01 µg/mL stood at 66%, the activity at 0.03 µg/mL was 67%, the activity at 0.1 µg/mL amounted to 86% and the activity at 0.3 µg/mL was determined as 81%. The activity at 1 µg/mL in data set [1] worked out at 78%.

The molecule `CCCOc1ccc(F)c2c(=O)c(-c3ccsc3)c[nH]c12` [Example 3, 5-Fluoro-8-propoxy-3-thiophen-3-yl-1H-quinolin-4-one] displayed a melting point of 208 to 210 °C. Also, in data set [1], the activity at 0.01 µg/mL was found to be 54%, the activity at 0.03 µg/mL is 63%, the activity at 0.1 µg/mL was 70% and the activity at 0.3 µg/mL came to 78%. Besides, in data set [1], the activity at 1 µg/mL came to 74%.

`COCCOc1ccc(F)c2c(=O)c(-c3ccc(OC)cc3)c[nH]c12` [Example 36, 5-Fluoro-8-(2 methoxyethoxy)-3-(4-methoxyphenyl)-1H-quinolin-4-one]: the melting point fell in the range of 142 to 144 °C. Also, in data set [1], the activity at 0.01 µg/mL came out at 63%, the activity at 0.03 µg/mL was 65%, the activity at 0.1 µg/mL was 74% and the activity at 0.3 µg/mL turned out to be 71%. Further, in data set [1], the activity at 1 µg/mL amounted to 91%.

On to `COc1ccc(-c2c(C)[nH]c3c(OCC4CC4)ccc(F)c3c2=O)cc1` [Example 47, 8-Cyclopropylmethoxy-5-fluoro-3-(4-methoxyphenyl)-2-methyl-1H-quinolin-4-one], for which the melting point was 167 to 169 °C. For the same molecule, in data set [1], the activity at 0.01 µg/mL turned out to be 51%, the activity at 0.03 µg/mL is 58%, the activity at 0.1 µg/mL came out at 71% and the activity at 0.3 µg/mL was 73%. The activity at 1 µg/mL in data set [1] amounted to 82%.

Molecule `COc1ccc(-c2c[nH]c3c(OC4CCCC4)ccc(F)c3c2=O)cc1` [Example 37, 8-Cyclopentyloxy-5-fluoro-3-(4-methoxyphenyl)-1H-quinolin-4-one] showed a melting point of 213 to 215 °C. In addition, in data set [1], the activity at 0.01 µg/mL was 64%, the activity at 0.03 µg/mL is 73%, the activity at 0.1 µg/mL was determined as 78% and the activity at 0.3 µg/mL was found to be 70%. In data set [1], the activity at 1 µg/mL stood at 61%.

`CCCOc1ccc(F)c2c(=O)c(-c3ccc(OCC4CC4)cc3)c[nH]c12` [Example 35, 3-(4-Cyclopropylmethoxyphenyl)-5-fluoro-8-propoxy-1H-quinolin-4-one] had a melting point of 162 to 163 °C. In addition, in data set [1], the activity at 0.01 µg/mL was found to be 75%, the activity at 0.03 µg/mL was found to be 88%, the activity at 0.1 µg/mL came to 99% and the activity at 0.3 µg/mL is 95%. Further, in data set [1], the activity at 1 µg/mL was found to be 65%.

As to `CCCOc1ccc(F)c2c(=O)c(-c3ccc(OC)cc3)cn(CC)c12` [Example 92, 1-Ethyl-5-fluoro-3-(4-methoxyphenyl)-8-propoxy-1H-quinolin-4-one], the melting point was in the range of 123 to 125 °C. In data set [1], the activity at 0.01 µg/mL was 63%, the activity at 0.03 µg/mL is 75%, the activity at 0.1 µg/mL came to 77% and the activity at 0.3 µg/mL came to 69%. Moreover, in data set [1], the activity at 1 µg/mL came out at 55%.

Take `COCCN(C)c1ccc(F)c2c(=O)c(-c3ccc(OC)cc3)c[nH]c12.Cl` [Example 34, 5-Fluoro-8-[N-(2-methoxyethyl)-N-methylamino]-3-(4-methoxyphenyl)-1H-quinolin-4-one hydrochloride]: the melting point fell in the range of 100 to 101 °C. Besides, in data set [1], the activity at 0.01 µg/mL was determined as 69%, the activity at 0.03 µg/mL is 74%, the activity at 0.1 µg/mL came to 77% and the activity at 0.3 µg/mL is 78%. Also, in data set [1], the activity at 1 µg/mL was 87%.

For the molecule `CCn1cc(-c2ccc(OC)cc2)c(=O)c2c(F)ccc(OCC3CC3)c21` [Example 66, 8-Cyclopropylmethoxy-1-ethyl-5-fluoro-3-(4-methoxyphenyl)-1H-quinolin-4-one], the melting point is 150 to 152 °C. Moreover, in data set [1], the activity at 0.01 µg/mL came to 66%, the activity at 0.03 µg/mL came to 72%, the activity at 0.1 µg/mL amounted to 83% and the activity at 0.3 µg/mL was 77%. For the same molecule, the activity at 1 µg/mL in data set [1] is 60%.

The values are drawn from patent publication US20160304461A1, “QUINOLONE COMPOUND AND PHARMACEUTICAL COMPOSITION” (OTSUKA PHARMACEUTICAL CO., LTD., priority 2007, published 2016).
